What was measured:
[1] = target: bovine submaxillary mucin (BSM); assay: BLI; details: parent: est. 0.65; read off a plot
[2] = target: T1, Abp1DRBD (Acinetobacter baumannii, UniProt A0A219C937); assay: glycan microarray (CFG v5.[…]), biotinylated protein; assay type: binding; details: protein 50 μg/mL; glycan immobilised through spacer; labelled protein
T1 construct: gene fimA_2

[3] = target: T2, Abp2DRBD (Acinetobacter baumannii, UniProt A0A7U3Y091); assay: glycan microarray (CFG v5.[…]), biotinylated protein; assay type: binding; details: protein 50 μg/mL; glycan immobilised through spacer; labelled protein
T2 construct: gene ACICU_01810

[4] = target: T1, Abp1DRBD; assay: glycan microarray (CFG v5.[…]), biotinylated protein; assay type: binding; details: protein 50 μg/mL; glycan immobilised through spacer; labelled protein; remark: listed apart in the source
[5] = target: bovine submaxillary mucin (BSM) (bovine); assay: BLI; biotinylated BSM loaded on streptavidin pins; Abp2DRBD constructs at 2.07 µM in 1× PBS + 2% BSA + 0.05% Tween-20; 300 s association, 300 s dissociation; end time point of association compared

Substance	Abp1DRBD / Average RFU [2]	Abp2DRBD / Average RFU [3]	further results
Abp2D receptor-binding domain from ACICU (Abp2DRBD), wild type Y100A	–	–	response [1]: 0.46 nm
GlcNAcb1-3Galb1-4GlcNAcb1-3Galb1-4GlcNAcb1-2Mana1-6(GlcNAcb1-3Galb1-4GlcNAcb1-3Galb1-4GlcNAcb1-2Mana1-3)Manb1-4GlcNAcb1-4GlcNAcb-Sp12 [compound 535]	4,735 ± 602 RFU	34,056 ± 4,827 RFU	–
Galb1-4(Fuca1-3)GlcNAcb1-2Mana1-6(Galb1-4(Fuca1-3)GlcNAcb1-2Mana1-3)Manb1-4GlcNAcb1-4(Fuca1-6)GlcNAcb-Sp22 [compound 412]	2,932 ± 266 RFU	48,357 ± 11,791 RFU	–
Galb1-3GlcNAcb1-3Galb1-3GlcNAcb-Sp0 [compound 285]	3,392 ± 319 RFU	28,674 ± 4,137 RFU	–
Fuca1-2Galb1-4(Fuca1-3)GlcNAcb1-2Mana1-6(Fuca1-2Galb1-4(Fuca1-3)GlcNAcb1-2Mana1-3)Manb1-4GlcNAcb1-4GlcNAb-Sp20 [compound 356]	2,867 ± 192 RFU	58,018 ± 2,343 RFU	–
GlcNAcb1-3Galb1-4GlcNAcb1-6(GlcNAcb1-3Galb1-4GlcNAcb1-2)Mana1-6(GlcNAcb1-3Galb1-4GlcNAcb1-2Man a1-3)Manb1-4GlcNAcb1-4GlcNAc-Sp24 [compound 545]	3,159 ± 350 RFU	39,436 ± 6,368 RFU	–
Neu5Aca2-3Galb1-4GlcNAcb1-3Galb1-4GlcNAcb1-3Galb1-4GlcNAcb1-2Mana1-6(Neu5Aca2-3Galb1-4GlcNAcb1-3Galb1-4GlcNAcb1-3Galb1-4GlcNAcb1-2Mana1-3)Manb1-4GlcNAcb1-4GlcNAcb-Sp12 [compound 582]	–	–	Abp1DRBD / SD [4]: 9,786 ± 418 RFU
Abp2D receptor-binding domain from ACICU (Abp2DRBD), wild type R86A	–	–	response [1]: 0.66 nm
GlcNAcb1-3Galb1-4GlcNAcb1-2Mana1-6(GlcNAcb1-3Galb1-4GlcNAcb1-2Mana1-3)Manb1-4GlcNAcb1-4GlcNAcb-Sp12 [compound 531]	6,977 ± 1,001 RFU	59,914 ± 1,963 RFU	–
Abp2D receptor-binding domain from ACICU (Abp2DRBD), wild type R86E	–	–	response [1]: 0.02 nm
Neu5Aca2-6Galb1-4GlcNAcb1-6GalNAca-Sp14 [compound 472]	4,714 ± 450 RFU	54,517 ± 1,322 RFU	–
Abp2D receptor-binding domain (ACICU) R102A (domain or fragment)	–	–	percent reduction of binding relative to Abp2DRBD WT [5]: 70%
Abp2D receptor-binding domain (ACICU) Y141A (domain or fragment)	–	–	percent reduction of binding relative to Abp2DRBD WT [5]: 90%
Fuca1-2Galb1-4(Fuca1-3)GlcNAcb1-2Mana1-6(Fuca1-2Galb1-4(Fuca1-3)GlcNAcb1-4(Fuca1-2Galb1-4(Fuca1-3)GlcNAcb1-2)Mana1-3)Manb1-4GlcNAcb1-4GlcNAcb-Sp12 [compound 439]	3,373 ± 55 RFU	30,667 ± 511 RFU	–
Neu5Aca2-3Galb1-4GlcNAcb1-2Mana-Sp0 [compound 470]	6,747 ± 133 RFU	53,822 ± 4,116 RFU	–

Reference: publication PMC9942807, “Structure–function correlates of fibrinogen binding by Acinetobacter adhesins critical in catheter-associated urinary tract infections” (Proceedings of the National Academy of Sciences of the …, 2023)
